From patent US20240181015A1, “EFFECT OF GHRH ANTAGONISTS IN DIABETES AND OBESITY” (AUGUSTA UNIVERSITY RESEARCH INSTITUTE, INC., priority 2021, published 2024)
Ends that are not written are not given here.

Key:
[1] = system: wild type mice fed on high fat diet (HFD); assay: Postprandial triglyceride plasma levels after oral lipid loading in high fat diet fed mice; assay type: in vivo; settings: HFD 16 weeks, 25 μg/kg/day subcutaneous every other day for last 4 weeks, up to 2 hours after oral lipid loading
Description: Both 8-week old wild type mice with intact ghrhr gene, and ghrhr conditional knock out mice were fed a high fat or control diet for 16 weeks. The effect of selective deletion of the ghrhr gene in the small intestine versus the effect of the GHRH antagonist AVR-352 or vehicle treatment for the last 4 weeks in wild type mice when both groups were fed a high fat diet, on fasting and postprandial triglyceride plasma levels were compared. The Ghrhr floxed mice using embryonic ES Cells was generated (International Mouse Phenotyping Consortium—IMPC). The ES cell clones were targeted with a floxed allele of Ghrhr with exons 2-5 flanked by loxP sites, and were injected into C57BL/6-Albino blastocysts for chimera production and generation of Ghrhr flox/wt mice (Animal Models Core, UNC, Project ID: Ex231). The colony was expanded and obtained the homozygous Ghrhr flox/flox mice, which were cross bred with mice expressing Cre recombinase in the small intestine (B6.Cg-Tg(Vil1-cre) 1000 Gum/J, Jackson Laboratories). Recombinase activity results in the deletion of loxP flanked targets in the intestine.
Mice with the deletion of GHRH receptor in small intestine epithelium (HOMO) were fed on high fat diet (HFD) or control diet (Ctrl diet) for 16 weeks. AVR-352 (25 μg/kg/day, subcutaneous, every other day), was given to wild type mice after 12 weeks of high fat diet (HFD) for 4 weeks.

[2] = system: diet-induced obesity (DIO) C57BL/6 mice; assay: Fasting triglyceride levels in diet-induced obesity (DIO) C57BL/6 mice; assay type: in vivo; settings: HFD 24 weeks; 25 μg/kg/day subcutaneous for last 12 weeks; vs untreated HFD mice
Procedure: C57BL/6 mice, 12 weeks of age were fed on a normal control diet (CD) or diet supplemented with high levels of fat (HFD) for 12 weeks, before treatment with GHRH antagonist, AVR-352 (25 μg/kg/day, subcutaneous) or vehicle for 12 weeks. Total triglycerides in plasma (TG ELISA kit, MyBioSource) were measured.

[3] = system: wild type mice fed on high fat diet (HFD); assay: ApoB-48 and MTTP protein content in scrapped small intestine epithelium of HFD mice; assay type: in vivo; settings: 25 μg/kg/day subcutaneous every other day for 4 weeks, vs untreated HFD mice
Procedure: The protein expression of microsomal triglyceride transfer protein (MTTP), an enzyme involved in ApoB-48 lipoprotein assembly, in protein extracts isolated from scrapped epithelium of whole small intestine of mice were evaluated. Densitometric analysis (optical density O.D., fold over Ctrl diet fed mice) of ApoB-48 (FIG. 11B) and MTTP ([…]) corrected by protein loading (vinculin) (FIG. 11A) was performed. Mice fed on HFD were treated with GHRH antagonist AVR-352 (Antago, 25 μg/kg/day, subcutaneous, every other day for 4 weeks).

[4] = system: C57BL/6 wild type male mice fed on high fat diet (HFD); assay: CLAMS (body weight gain, activity-ambient) in HFD mice treated with AVR-352; assay type: in vivo; settings: HFD 12 weeks, then 25 μg/kg/day subcutaneous for 4 weeks, vs untreated HFD mice
Procedure: 8 to 10-Week old C57BL/6 wild type male mice were fed on a high fat diet (HFD) for 12-weeks. Mice were then treated with the GHRH antagonist AVR-352 (25 μg/kg/day, subcutaneous) or vehicle for 4-weeks. At the end of treatment, mice were placed individually in metabolic (CLAMS) system. Body weight was recorded at beginning of treatment and at time of CLAMS after 4-weeks of treatment with the GHRH antagonist AVR-352 or vehicle. Activity-ambient (counts/day) was also measured.

[5] = system: human small intestine epithelial cells (hulECs); assay: ApoB-48 secretion by huIEC loaded with oleic acid; assay type: cell-based
Procedure: FIG. 14 is a bar graph showing confluent monolayers of human small intestine epithelial cells (hulECs, ATCC) were cultured in 6-well plates and loaded or not with oleic acid after treatments. ApoB-48 was measured in culture supernatants. GHRH agonist JI-34 (1 μM, 1 h) impaired the actions of the GLP-1 receptor agonist exendin 4 (Ex-4, 10 nM, 2 h) on reducing the ApoB48 secretion upon loading hulEC with oleic acid (0.5 mM, 3 h). This effect was completely blunted by co-treatment of cells with the GHRH antagonist MIA-602 (1 μM, 1 h).
FIG. 15 is a bar graph showing confluent monolayers of human small intestine epithelial cells (hulECs, ATCC) were cultured in 6-well plates and loaded or not with oleic acid after treatments. ApoB-48 was measured in culture supernatants.
Confluent monolayers of human small intestine epithelial cells (hulECs, ATCC) were cultured in 6-well plates and were either loaded with oleic acid or not loaded with oleic acid after treatment. ApoB-48 was measured in culture supernatants (MyBioSource).

[6] = system: db/db mice; assay: Fasting plasma triglycerides, ApoB-48 and VLDL (ELISA) in db/db mice treated with MIA-602; assay type: in vivo; settings: fasting state, 25 μg/kg/day subcutaneous every other day for 4 weeks, vs untreated db/db mice
Procedure: Obese 20-week old male diabetic (db/db) mice were treated with the GHRH antagonist MIA-602 (25 μg/kg/day, subcutaneous, every other day) or vehicle (untreated, n=6/group) for 4 weeks. Total triglycerides (mg/dl), ApoB-48-containing lipoproteins (ApoB-48, ng/ml), and very low density lipoprotein (VLDL, mg/dl) in plasma obtained from mice in the fasting state were measured by ELISA (MyBioSource).
Given the high incidence of T2D and obesity and its association with CVD, experiments were carried out to investigate whether GHRH receptor antagonist MIA-602 administered subcutaneous suppresses elevation of TRL in mice homozygous for the diabetes spontaneous mutation Leprdb-BKS db (db/db), a valid model of human T2D/obesity. Heterozygous for Leprdb were used as lean controls.
GHRH antagonist MIA-602 (25 μg/kg/day, subcutaneous, every other day), was given to a sub-group of 20 weeks old db/db mice for 4 weeks. FIGS. 2A-2C show the effect of the treatment with MIA-602 on triglycerides, ApoB-48, and very low density lipoprotein (VLDL) levels, respectively, in db/db mice.

[7] = system: db/db mice; assay: MTTP activity and ApoB-48 protein expression in jejunum protein extracts of db/db mice; assay type: in vivo; settings: protein extracts from jejunum of db/db mice, 25 μg/kg/day s.c.
Procedure: Protein extracts were isolated from jejunum of diabetic (db/db) mice and lean control mice. Microsomal triglyceride transfer protein (MTTP) activity (pmole/μg protein/hour) was measured in protein extracts from diabetic (db/db) mice versus lean control mice treated or not with GHRH antagonist MIA-602. Further, ApoB-48 protein expression determined by densitometric analysis (optical density, O.D.) of ApoB-48 corrected by protein loading (vinculin) was also performed in protein extracts from diabetic (db/db) mice versus lean control mice treated or not with GHRH antagonist MIA-602.

[8] = system: db/db mice; assay: Fasting blood glucose, HbA1c and glucagon in db/db mice; assay type: in vivo; settings: 25 μg/kg/day subcutaneous for 12 weeks, vs untreated db/db mice
Procedure: Male db/db mice, 12 weeks of age were treated with the GHRH antagonist MIA-602 (25 μg/kg/day, subcutaneous, n=6) or vehicle (untreated, n=6/group) for 12 weeks. Samples were obtained from tail bleeding to determine (A) Fasting blood glucose (AlphaTRAK), (B) HbA1c (Crystal Chem) and (C) Glucagon.

[9] = system: C57BL/6 male mice fed on high fat diet (HFD); assay: CLAMS (food intake, body weight gain, activity-ambient, RER) in HFD mice treated with MIA-602; assay type: in vivo; settings: HFD 24 weeks, 25 μg/kg/day subcutaneous for last 12 weeks
Procedure: 12-Week old C57BL/6 male mice were fed on a high fat diet (HFD) or control diet (CD) for 12-weeks. Mice fed on HFD were treated with the GHRH antagonist MIA-602 (25 μg/kg/day, subcutaneous) or vehicle for 12-weeks. At the end of treatment, mice were placed individually in metabolic (CLAMS) system and a) food intake, b) body weight gain, c) activity-ambient, and d) respiratory exchange ratio were measured.

[10] = system: rat small intestine epithelial cells (IEC); settings: U.S. Pat. No. 10,201,588; cited from earlier work
[11] = system: STZ-rats; settings: STZ-rats (T1D model); U.S. Pat. No. 10,201,588; cited from earlier work

## 5FPhAC-Ada-Tyr-DArg-Asp-Ala-Ile-5FPhe-Thr-Ala-Har-Tyr(Me)-Arg-Lys-Val-Leu-Abu-Gln-Leu-Ser-Ala-Arg-Lys-Leu-Leu-Gln-Asp-Ile-Nle-DArg-Har-Ada-NH2 [AVR-352]
[1]
  postprandial increase of triglyceride plasma levels: significantly blunted
[2]
  fasting total triglycerides in plasma: significantly reduced
[3]
  ApoB-48 protein content in small intestine epithelium: significant reduction
  MTTP protein content in small intestine epithelium: without significantly affecting
[4]; dark cycle
  daily activity-ambient, dark cycle: significantly higher
[4]; light cycle
  daily activity-ambient, light cycle: no significant differences
[4]
  body weight gain (%): significantly lower

## GHRH: native growth hormone releasing hormone, the naturally occurring ligand of GHRH receptor (YADAIFTNSYRKVLGQLSARKLLQDIMSRQQGESNQERGARARL; ends and bridges not checked; UniProt P01286 32-75, looked up) [reference compound]
[5]; different concentrations of native GHRH
  ApoB-48 released in the culture medium, different concentrations: increased levels of ApoB-48 were released in the culture medium in a dose-dependent manner

## Tyr-Ala-Asp-Ala-Ile^5-Phe-Thr-Asn-Ser-Tyr^10-Arg-Lys-Val-Leu-Gly^15-Gln-Leu-Ser-Ala-Arg^20-Lys-Leu-Leu-Gln-Asp^25-Ile-Met-Ser-Arg^29-NH2 [MIA-602]
[6]
  ApoB-48-containing lipoproteins in plasma: significantly reduced
  total triglycerides in plasma: significantly reduced
  very low density lipoprotein (VLDL) in plasma: significantly reduced
[7]
  microsomal triglyceride transfer protein (MTTP) activity: not associated with significant changes
[7]; vs untreated
  ApoB-48 levels (densitometry, corrected by vinculin): significantly lower levels
[8]
  fasting blood glucose level: modest but significant reduction
  glucagon levels: significant reduction
  hemoglobin A1c (HbA1c) level: modest but significant reduction
[9]; vs non-treated mice
  respiratory exchange ratio (RER): slightly but significantly lower
[9]; vs untreated HFD mice
  body weight gain: significant reduction
  daily activity-ambient: significant increase
  food intake: No changes
[5]; MIA-602 1 μM, 1 h co-treatment with JI-34 1 μM and Ex-4 10 nM
  impaired signaling of Ex-4 in the presence of JI-34 (ApoB-48 secretion): completely restored
[10]
  ApoB-48 lipoproteins in rat IEC in vitro: reduced
[11]
  ApoB-48 lipoproteins in STZ-rats: reduced
